According to PubChem BioAssay (NCI):
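Briefly, cells in 96-well plates were exposed to five compound concentrations for 48 h, and endpoints were estimated by linear interpolation. GI50 marks 50% less growth. TGI: concentration producing complete growth inhibition.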

Experiments:
Experiment in all cases: inhibition of tumour cell growth, NCI panel, 48 h
OVCAR-5 ovarian = test system: OVCAR-5 ovarian
HL-60(TB) leukemia = test system: HL-60(TB) leukemia
PC-3 prostate = test system: PC-3 prostate
786-0 renal = test system: 786-0 renal
K-562 leukemia = test system: K-562 leukemia
M14 melanoma = test system: M14 melanoma
SK-MEL-2 melanoma = test system: SK-MEL-2 melanoma
UO-31 renal = test system: UO-31 renal
SF-539 CNS = test system: SF-539 CNS
OVCAR-8 ovarian = test system: OVCAR-8 ovarian

CC1(C)N=C(N)N=C(N)N1c1ccc(OCCCNC(=O)Nc2ccc(S(=O)(=O)F)cc2)c(Cl)c1
GI50 (OVCAR-5 ovarian): 419 nM
TGI (OVCAR-5 ovarian): > 100000 nM
GI50 (HL-60(TB) leukemia): 113 nM
TGI (HL-60(TB) leukemia): > 65300 nM
GI50 (PC-3 prostate): 165 nM
TGI (PC-3 prostate): > 73000 nM
GI50 (786-0 renal): 417 nM
TGI (786-0 renal): > 100000 nM
GI50 (K-562 leukemia): 49.7 nM
TGI (K-562 leukemia): > 100000 nM
GI50 (M14 melanoma): 493 nM
TGI (M14 melanoma): > 100000 nM
GI50 (SK-MEL-2 melanoma): 790 nM
TGI (SK-MEL-2 melanoma): > 100000 nM
GI50 (UO-31 renal): 69500 nM
TGI (UO-31 renal): > 100000 nM
GI50 (SF-539 CNS): 1300 nM
TGI (SF-539 CNS): > 67400 nM
GI50 (OVCAR-8 ovarian): 697 nM
TGI (OVCAR-8 ovarian): > 100000 nM

O=C(O)/C=C/c1ccc(O)c(O)c1
TGI (OVCAR-5 ovarian): > 100000 nM
TGI (HL-60(TB) leukemia): > 100000 nM
TGI (PC-3 prostate): > 100000 nM
TGI (786-0 renal): > 100000 nM
TGI (K-562 leukemia): > 100000 nM
TGI (M14 melanoma): > 100000 nM
TGI (SK-MEL-2 melanoma): > 100000 nM
TGI (UO-31 renal): > 100000 nM
TGI (SF-539 CNS): > 100000 nM
TGI (OVCAR-8 ovarian): > 100000 nM

COc1cccc2c1nc(C(F)F)n2-c1nc(-c2ccc(NS(=O)(=O)CCN(C)C)cc2)nc(N2CCOCC2)n1
GI50 (OVCAR-5 ovarian): 90.9 nM
TGI (OVCAR-5 ovarian): 17300 nM
GI50 (HL-60(TB) leukemia): 39.7 nM
TGI (HL-60(TB) leukemia): 10200 nM
GI50 (PC-3 prostate): 92.3 nM
TGI (PC-3 prostate): 12900 nM
GI50 (786-0 renal): 231 nM
TGI (786-0 renal): 2760 nM
GI50 (K-562 leukemia): 1200 nM
TGI (K-562 leukemia): 11400 nM
GI50 (M14 melanoma): 243 nM
TGI (M14 melanoma): > 100000 nM
GI50 (SK-MEL-2 melanoma): 195 nM
TGI (SK-MEL-2 melanoma): 2500 nM
GI50 (UO-31 renal): 65.9 nM
TGI (UO-31 renal): 1100 nM
GI50 (SF-539 CNS): 197 nM
TGI (SF-539 CNS): 2630 nM
GI50 (OVCAR-8 ovarian): 295 nM
TGI (OVCAR-8 ovarian): > 41100 nM

Cc1c(Cl)cccc1C(=O)Nc1nc2c(s1)CN(C(=O)Nc1cccc(C(F)(F)F)c1)CC2
GI50 (OVCAR-5 ovarian): 603 nM
TGI (OVCAR-5 ovarian): > 50000 nM
GI50 (HL-60(TB) leukemia): 149 nM
GI50 (PC-3 prostate): 143 nM
TGI (PC-3 prostate): > 50000 nM
GI50 (786-0 renal): 254 nM
TGI (786-0 renal): > 25300 nM
GI50 (K-562 leukemia): 131 nM
TGI (K-562 leukemia): > 50000 nM
GI50 (M14 melanoma): 167 nM
TGI (M14 melanoma): > 50000 nM
GI50 (SK-MEL-2 melanoma): 283 nM
TGI (SK-MEL-2 melanoma): > 50000 nM
GI50 (UO-31 renal): 508 nM
TGI (UO-31 renal): > 50000 nM
GI50 (SF-539 CNS): 155 nM
TGI (SF-539 CNS): 885 nM
GI50 (OVCAR-8 ovarian): 277 nM
TGI (OVCAR-8 ovarian): > 50000 nM

ClC1=C(Cl)C(Cl)(C2(Cl)C(Cl)=C(Cl)C(Cl)=C2Cl)C(Cl)=C1Cl
GI50 (OVCAR-5 ovarian): 1220 nM
TGI (OVCAR-5 ovarian): 2760 nM
GI50 (HL-60(TB) leukemia): 206 nM
TGI (HL-60(TB) leukemia): 549 nM
GI50 (PC-3 prostate): 975 nM
TGI (PC-3 prostate): 2950 nM
GI50 (786-0 renal): 242 nM
TGI (786-0 renal): 746 nM
GI50 (K-562 leukemia): 226 nM
TGI (K-562 leukemia): > 100000 nM
GI50 (M14 melanoma): 252 nM
TGI (M14 melanoma): 716 nM
GI50 (SK-MEL-2 melanoma): 1290 nM
TGI (SK-MEL-2 melanoma): 3140 nM
GI50 (UO-31 renal): 170 nM
TGI (UO-31 renal): 445 nM
GI50 (SF-539 CNS): 1740 nM
TGI (SF-539 CNS): 3660 nM
GI50 (OVCAR-8 ovarian): 365 nM
TGI (OVCAR-8 ovarian): 3790 nM

COC(=O)C(=O)C(C(=O)C(=O)Nc1ccc(Cl)c(Cl)c1)c1nc2ccc(C(=O)c3ccccc3)cc2[nH]c1=O (centres undefined)
TGI (OVCAR-5 ovarian): > 100000 nM
TGI (HL-60(TB) leukemia): > 100000 nM
TGI (PC-3 prostate): > 100000 nM
TGI (786-0 renal): > 100000 nM
TGI (K-562 leukemia): 12900 nM
TGI (M14 melanoma): > 100000 nM
TGI (SK-MEL-2 melanoma): > 100000 nM
TGI (UO-31 renal): > 100000 nM
TGI (SF-539 CNS): > 100000 nM
TGI (OVCAR-8 ovarian): > 100000 nM

CN(C)CCNC(=O)c1cc2c3cc(Cl)ccc3[nH]c2c2ncccc12
GI50 (OVCAR-5 ovarian): 11900 nM
TGI (OVCAR-5 ovarian): 27400 nM
GI50 (HL-60(TB) leukemia): 1970 nM
TGI (HL-60(TB) leukemia): 4020 nM
GI50 (PC-3 prostate): 3620 nM
TGI (PC-3 prostate): 14800 nM
GI50 (786-0 renal): 4830 nM
TGI (786-0 renal): 18100 nM
GI50 (K-562 leukemia): 1680 nM
TGI (K-562 leukemia): 3980 nM
GI50 (M14 melanoma): 1700 nM
TGI (M14 melanoma): 3680 nM
GI50 (SK-MEL-2 melanoma): 4200 nM
TGI (SK-MEL-2 melanoma): 20100 nM
GI50 (UO-31 renal): 1100 nM
TGI (UO-31 renal): 2490 nM
GI50 (SF-539 CNS): 1570 nM
TGI (SF-539 CNS): 3140 nM
GI50 (OVCAR-8 ovarian): 2570 nM
TGI (OVCAR-8 ovarian): 12700 nM

COC(=O)[C@@H](C)C[C@H](Cc1ccccc1)NC(=O)c1nc([C@@H](C[C@H](C(C)C)N(C)C(=O)[C@@H](NC(=O)[C@H]2C[C@H](O)CCN2C)C(C)C)OC(C)=O)sc1C(C)C
GI50 (OVCAR-5 ovarian): 42.8 nM
TGI (OVCAR-5 ovarian): > 11100 nM
GI50 (HL-60(TB) leukemia): 1.43 nM
TGI (HL-60(TB) leukemia): 7.4 nM
GI50 (PC-3 prostate): 3.91 nM
TGI (PC-3 prostate): > 11100 nM
GI50 (786-0 renal): 33.7 nM
TGI (786-0 renal): 4650 nM
GI50 (K-562 leukemia): 2.67 nM
TGI (K-562 leukemia): > 11100 nM
GI50 (M14 melanoma): 14.9 nM
TGI (M14 melanoma): 1240 nM
GI50 (SK-MEL-2 melanoma): 3.18 nM
TGI (SK-MEL-2 melanoma): > 11100 nM
GI50 (UO-31 renal): 504 nM
TGI (UO-31 renal): > 11100 nM
GI50 (SF-539 CNS): 15.9 nM
TGI (SF-539 CNS): 50.5 nM
GI50 (OVCAR-8 ovarian): 19.3 nM
TGI (OVCAR-8 ovarian): > 11100 nM

CN1C(=O)C(c2c[nH]c3ccccc23)=C(c2c[nH]c3ccccc23)C1=O
GI50 (OVCAR-5 ovarian): 9880 nM
TGI (OVCAR-5 ovarian): > 25000 nM
GI50 (HL-60(TB) leukemia): 6370 nM
TGI (HL-60(TB) leukemia): 18100 nM
GI50 (PC-3 prostate): 4460 nM
TGI (PC-3 prostate): > 25000 nM
GI50 (786-0 renal): 9850 nM
TGI (786-0 renal): > 25000 nM
GI50 (K-562 leukemia): 7770 nM
TGI (K-562 leukemia): > 25000 nM
GI50 (M14 melanoma): 5960 nM
TGI (M14 melanoma): 17200 nM
GI50 (SK-MEL-2 melanoma): 5260 nM
TGI (SK-MEL-2 melanoma): 13400 nM
GI50 (UO-31 renal): 2640 nM
TGI (UO-31 renal): > 20600 nM
GI50 (SF-539 CNS): 6870 nM
TGI (SF-539 CNS): > 25000 nM
GI50 (OVCAR-8 ovarian): 7670 nM
TGI (OVCAR-8 ovarian): > 25000 nM

Cc1c2cnccc2c(C)c2c1c1ccccc1n2CCOC(=O)c1ccccc1
TGI (OVCAR-5 ovarian): 69000 nM
TGI (HL-60(TB) leukemia): 26000 nM
TGI (PC-3 prostate): > 100000 nM
TGI (786-0 renal): 28600 nM
TGI (K-562 leukemia): 44500 nM
TGI (M14 melanoma): > 100000 nM
TGI (SK-MEL-2 melanoma): 31800 nM
TGI (UO-31 renal): 15300 nM
TGI (SF-539 CNS): 20900 nM
TGI (OVCAR-8 ovarian): 26900 nM
